Key:
[1] = system: Salmonella typhimurium TA98, TA100, TA1535, TA97a and TA102; experiment: AMES testing (bacterial reverse mutation test, Salmonella/microsome assay), all strains; type: cell-based
From the text: (§1) The Ames assay is a rapid, reliable and economical method for screening compounds for potential genetic activity at the nucleotide level. A large database has been accumulated with this assay, confirming its ability to detect genetically active compounds of most chemical classes with around 80 to 90% sensitivity and specificity.
(§2) With the exception of strain TA102, these strains require biotin as well as histidine for growth. In strain TA102 the critical mutation in the histidine gene is located on a multicopy plasmid pAQ1. This strain is particularly sensitive to the activities of oxidative and cross-linking mutagens. The plasmid derivatives (TA98, TA100, TA97a and TA102) have increased sensitivity to certain mutagens as the pKM101 plasmid codes for an error-prone DNA repair system^(1,3).
(§3) When exposed to a mutagen, some of the bacteria in the treated population, through chemical interaction with the compound, undergo genetic changes which cause them to revert to a non-histidine-requiring state and thus grow in the absence of exogenous histidine. Different tester strains are used because each is mutated by particular chemical classes of compound. A compound that is mutagenic in one strain need not be so in another^(1,3).
(§4) Test item: INT 3, also known as 5-fluoro-2-methyl-3-(4,4,5,5-tetramethyl-1,3,2-dioxaborolan-2-yl)aniline. Vehicle: Di-methyl sulfoxide (DMSO) Purity/Content of drug: 97.95%. Molecular Structure:
(§5) Strains of Salmonella typhimurium used^(4,5,6): TA98, TA100, TA1535, TA97a and TA102. Metabolic activation system^(2): Liver S-9 mix from male rats, Aroclor 1254-pretreated. Per plate, 0.5 mL of 5% S-9 mix was added. Controls: Control treatments comprised additions at the same volume per plate (0.1 mL) as the test item solutions. Negative controls comprised treatments with the chosen vehicle.
(§6) Concentrations tested (Mutaqenicity Study): 50, 158, 501, 1582 and 5000 μg/plate (using all strains+/−S-9). […] Mutagenicity: Data from control treatments confirmed the correct strain and assay functioning, and the data were accepted as valid.
(§7) Acceptance criteria: The assay was considered valid as all the following criteria were met: • 1. Vehicle control counts fell within the normal ranges; • 2. The positive control chemicals induced increases in revertant numbers by 5- to 30-fold for different strains when compared to the concurrent vehicle controls confirming discrimination between different strains, and an active S-9 preparation.
(§8) Evaluation criteria: For valid data, the test item was considered mutagenic in this assay if a concentration related increase in revertant numbers of 2-fold (in strains TA98, TA100, TA1535 or TA97a) or 1.5-fold (in strain TA102) the concurrent vehicle control values was observed. […]

[2] = system: Salmonella typhimurium tester strain TA97a; experiment: AMES testing (bacterial reverse mutation test, Salmonella/microsome assay), strain TA97a; type: cell-based; conditions: for increase in the number of revertants over the concurrent vehicle controls: strain TA97a; for mutagenicity (overall conclusion): strain TA97a in presence of metabolic activation, criterion 2-fold increase in revertants
From the text: as §1, §2, §3, §4, §5, §6, §7, §8

## Cc1c(N)cc(F)cc1B1OC(C)(C)C(C)(C)O1 [INT 3, 5-fluoro-2-methyl-3-(4,4,5,5-tetramethyl-1,3,2-dioxaborolan-2-yl)aniline]
[1]; any other strain treatments (TA98, TA100, TA1535, TA97a without S-9), 50-5000 μg/plate, +/- S-9
  increase in revertant numbers over the concurrent vehicle controls, other strain treatments: < 2 fold
[1]; preliminary cytotoxicity and mutagenicity test, any strain, presence and absence of metabolic activation, up to 5000 μg/plate
  cytotoxicity to tester strains: did not indicate any cytotoxicity
[1]; strain TA102, 50-5000 μg/plate, +/- S-9
  increase in revertant numbers over the concurrent vehicle controls, strain TA102: < 1.5 fold
[1]; up to highest concentration (5000 μg/plate), presence and absence of metabolic activation, vehicle DMSO
  precipitation of test item: did not precipitate
[2]; Experiment 1, 5000 μg/plate, in the presence of metabolic activation (rat liver S-9)
  increase in the number of revertants over the concurrent vehicle controls: 2.3 fold
[2]; Experiment 2, highest test concentration 5000 μg/plate, in presence of metabolic activation (rat liver S-9)
  increase in the number of revertants over the concurrent vehicle controls: 1.8 fold
[2]
  mutagenicity (overall conclusion): mutagenic potential
[2]; listed as INT3
  mutagenicity (overall conclusion): weak mutagenic potential

Reference: patent US20260209185A1, “SYNTHESIS METHODS AND INTERMEDIATES FOR THE PRODUCTION OF REMIMBRUTINIB” (NOVARTIS AG, priority 2022, published 2026)
